In patent US8846933B2, “N-link hydroxamic acid derivatives useful as antibacterial agents” (Pfizer Inc., priority 2009, dated 2014):

Columns and labels:
[1] = system: Pseudomonas aeruginosa UI-18: Wild-type (PA-7); assay: MIC determination (CLSI), strain PA-7; type: cell-based; conditions: strain PA-7; unit assumed
In short: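 Strain tested was P. aeruginosa UI-18, a wild-type isolate labelled PA-7. Minimum inhibitory concentrations followed CLSI dilution methodology for aerobically growing bacteria (M7-A7, M100-S18).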

[2] = system: Escherichia coli EC-1: VOGEL, mouse virulent; assay: MIC determination (CLSI), strain EC-1; type: cell-based; conditions: strain EC-1; unit assumed
In short: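 The mouse-virulent VOGEL isolate of E. coli, EC-1, served as test organism. Minimum inhibitory concentration was measured by CLSI dilution methodology (M7-A7; M100-S18 standards).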

SMILES: C[C@@](CCn1ccc(-c2ccc(-c3ncc[nH]3)cc2)cc1=O)(C(=O)NO)S(C)(=O)=O [Example 367, (2R)-N-hydroxy-4-{4-[4-(1H-imidazol-2-yl)phenyl]-2-oxopyridin-1(2H)-yl}-2-methyl-2-(methylsulfonyl)butanamide]
- PA-7 (MIC) [1]: > 64 µg/mL
- EC-1 (MIC) [2]: 8 µg/mL

SMILES: Cc1nccn1-c1ccc(-c2ccn(CC[C@](C)(C(=O)NO)S(C)(=O)=O)c(=O)c2)cc1 [Example 368, (2R)-N-hydroxy-2-methyl-4-{4-[4-(2-methyl-1H-imidazol-1-yl)phenyl]-2-oxopyridin-1(2H)-yl}-2-(methylsulfonyl)butanamide]
- PA-7 (MIC) [1]: 16 µg/mL
- EC-1 (MIC) [2]: > 64 µg/mL

SMILES: Cc1cc(-c2ccc(-c3ccn(CC[C@](C)(C(=O)NO)S(C)(=O)=O)c(=O)c3)cc2)[nH]n1 [Example 369]
- PA-7 (MIC) [1]: 4 µg/mL
- EC-1 (MIC) [2]: 2 µg/mL

SMILES: Cc1cc(-c2ccc(-c3ccn(CC[C@](C)(C(=O)NO)S(C)(=O)=O)c(=O)c3)cc2)no1 [Example 370, (2R)-N-hydroxy-2-methyl-4-{4-[4-(5-methylisoxazol-3-yl)phenyl]-2-oxopyridin-1(2H)-yl}-2-(methylsulfonyl)butanamide]
- PA-7 (MIC) [1]: 0.5 µg/mL
- EC-1 (MIC) [2]: 0.125 µg/mL

SMILES: C[C@@](CCn1ccc(-c2ccc(-n3cncn3)cc2)cc1=O)(C(=O)NO)S(C)(=O)=O [Example 371, (2R)-N-hydroxy-2-methyl-2-(methylsulfonyl)-4-{2-oxo-4-[4-(1H-1,2,4-triazol-1-yl)phenyl]pyridin-1(2H)-yl}butanamide]
- PA-7 (MIC) [1]: 8 µg/mL
- EC-1 (MIC) [2]: 32 µg/mL

SMILES: C[C@@](CCn1ccc(-c2ccc(-n3nccn3)cc2F)cc1=O)(C(=O)NO)S(C)(=O)=O [Example 372]
- PA-7 (MIC) [1]: 2 µg/mL
- EC-1 (MIC) [2]: 0.06 µg/mL

SMILES: Cc1nn(-c2ccc(-c3ccn(CC[C@](C)(C(=O)NO)S(C)(=O)=O)c(=O)c3)cc2)nc1C [Example 373, (2R)-4-{4-[4-(4,5-dimethyl-2H-1,2,3-triazol-2-yl)phenyl]-2-oxopyridin-1(2H)-yl}-N-hydroxy-2-methyl-2-(methylsulfonyl)butanamide]
- PA-7 (MIC) [1]: 1 µg/mL
- EC-1 (MIC) [2]: 0.125 µg/mL

SMILES: C[C@@](CCn1ccc(-c2ccc(-c3ccccn3)cc2)cc1=O)(C(=O)NO)S(C)(=O)=O [Example 374, (2R)-N-hydroxy-2-methyl-2-(methylsulfonyl)-4-[2-oxo-4-(4-pyridin-2-ylphenyl)pyridin-1(2H)-yl]butanamide]
- PA-7 (MIC) [1]: 1 µg/mL
- EC-1 (MIC) [2]: 0.25 µg/mL

SMILES: Cc1ccnc(-c2ccc(-c3ccn(CC[C@](C)(C(=O)NO)S(C)(=O)=O)c(=O)c3)cc2)n1 [Example 375, (2R)-N-hydroxy-2-methyl-4-{4-[4-(4-methylpyrimidin-2-yl)phenyl]-2-oxopyridin-1(2H)-yl}-2-(methylsulfonyl)butanamide]
- PA-7 (MIC) [1]: 4 µg/mL
- EC-1 (MIC) [2]: 0.5 µg/mL

SMILES: Cn1nnc(-c2ccc(-c3ccn(CC[C@](C)(C(=O)NO)S(C)(=O)=O)c(=O)c3)cc2)n1 [Example 376]
- PA-7 (MIC) [1]: 2 µg/mL
- EC-1 (MIC) [2]: 0.5 µg/mL

SMILES: Cc1cn(-c2ccc(-c3ccn(CC[C@](C)(C(=O)NO)S(C)(=O)=O)c(=O)c3)cc2)nn1 [Example 377, (2R)-N-hydroxy-2-methyl-2-(methylsulfonyl)-4-{4-[4-(4-methyl-1H-1,2,3-triazol-1-yl)phenyl]-2-oxopyridin-1(2H)-yl}butanamide]
- PA-7 (MIC) [1]: 8 µg/mL
- EC-1 (MIC) [2]: 8 µg/mL

SMILES: Cc1nnnn1-c1ccc(-c2ccn(CC[C@](C)(C(=O)NO)S(C)(=O)=O)c(=O)c2)cc1 [Example 378, (2R)-N-hydroxy-2-methyl-2-(methylsulfonyl)-4-{4-[4-(5-methyl-1H-tetrazol-1-yl)phenyl]-2-oxopyridin-1(2H)-yl}butanamide]
- PA-7 (MIC) [1]: 64 µg/mL
- EC-1 (MIC) [2]: 32 µg/mL

SMILES: Cc1nnn(-c2ccc(-c3ccn(CC[C@](C)(C(=O)NO)S(C)(=O)=O)c(=O)c3)cc2)n1 [Example 379, (2R)-N-hydroxy-2-methyl-2-(methylsulfonyl)-4-{4-[4-(5-methyl-2H-tetrazol-2-yl)phenyl]-2-oxopyridin-1(2H)-yl}butanamide]
- PA-7 (MIC) [1]: 2 µg/mL
- EC-1 (MIC) [2]: 0.5 µg/mL

SMILES: C[C@@](CCn1ccc(-c2ccc(-c3cnsc3)cc2)cc1=O)(C(=O)NO)S(C)(=O)=O [Example 380, (2R)-N-hydroxy-4-[4-(4-isothiazol-4-ylphenyl)-2-oxopyridin-1(2H)-yl]-2-methyl-2-(methylsulfonyl)butanamide]
- PA-7 (MIC) [1]: 1 µg/mL
- EC-1 (MIC) [2]: 0.5 µg/mL

SMILES: C[C@@](CCn1ccc(-c2ccc3cc(N4CCC(O)CC4)ccc3c2)cc1=O)(C(=O)NO)S(C)(=O)=O [Example 381, (2R)-N-hydroxy-4-{4-[6-(4-hydroxypiperidin-1-yl)-2-naphthyl]-2-oxopyridin-1(2H)-yl}-2-methyl-2-(methylsulfonyl)butanamide]
- PA-7 (MIC) [1]: 16 µg/mL
- EC-1 (MIC) [2]: 1 µg/mL

SMILES: Cc1nnc(C)n1-c1ccc(-c2ccn(CC[C@](C)(C(=O)NO)S(C)(=O)=O)c(=O)c2)cc1 [Example 382, (2R)-4-{4-[4-(3,5-dimethyl-4H-1,2,4-triazol-4-yl)phenyl]-2-oxopyridin-1(2H)-yl}-N-hydroxy-2-methyl-2-(methylsulfonyl)butanamide]
- PA-7 (MIC) [1]: > 64 µg/mL
- EC-1 (MIC) [2]: > 64 µg/mL

SMILES: Cc1nncn1-c1ccc(-c2ccn(CC[C@](C)(C(=O)NO)S(C)(=O)=O)c(=O)c2)cc1 [Example 383, (2R)-N-hydroxy-2-methyl-2-(methylsulfonyl)-4-{4-[4-(3-methyl-4H-1,2,4-triazol-4-yl)phenyl]-2-oxopyridin-1(2H)-yl}butanamide]
- PA-7 (MIC) [1]: > 64 µg/mL
- EC-1 (MIC) [2]: > 64 µg/mL

SMILES: Cc1nc(C)n(-c2ccc(-c3ccn(CC[C@](C)(C(=O)NO)S(C)(=O)=O)c(=O)c3)cc2)n1 [Example 384, (2R)-4-{4-[4-(3,5-dimethyl-1H-1,2,4-triazol-1-yl)phenyl]-2-oxopyridin-1(2H)-yl}-N-hydroxy-2-methyl-2-(methylsulfonyl)butanamide]
- PA-7 (MIC) [1]: 16 µg/mL
- EC-1 (MIC) [2]: 8 µg/mL

SMILES: CCOc1ccc2cc(-c3ccn(CC[C@](C)(C(=O)NO)S(C)(=O)=O)c(=O)c3)ccc2n1 [Example 385, (2R)-4-[4-(2-ethoxyquinolin-6-yl)-2-oxopyridin-1(2H)-yl]-N-hydroxy-2-methyl-2-(methylsulfonyl)butanamide]
- PA-7 (MIC) [1]: 0.5 µg/mL
- EC-1 (MIC) [2]: 0.06 µg/mL

SMILES: C[C@@](CCn1ccc(-c2ccc(Cl)cc2Cl)cc1=O)(C(=O)NO)S(C)(=O)=O [Example 386]
- PA-7 (MIC) [1]: 2 µg/mL
- EC-1 (MIC) [2]: 2 µg/mL

SMILES: COc1cnc(-c2ccc(-c3ccn(CC[C@](C)(C(=O)NO)S(C)(=O)=O)c(=O)c3)cc2)nc1 [Example 387, (2R)-N-hydroxy-4-{4-[4-(5-methoxypyrimidin-2-yl)phenyl]-2-oxopyridin-1(2H)-yl}-2-methyl-2-(methylsulfonyl)butanamide]
- PA-7 (MIC) [1]: 0.5 µg/mL
- EC-1 (MIC) [2]: 0.06 µg/mL

SMILES: C[C@@](CCn1ccc(-c2ccc(-n3ccnc3)cc2)cc1=O)(C(=O)NO)S(C)(=O)=O [Example 388, (2R)-N-hydroxy-4-{4-[4-(1H-imidazol-1-yl)phenyl]-2-oxopyridin-1(2H)-yl}-2-methyl-2-(methylsulfonyl)butanamide]
- PA-7 (MIC) [1]: 16 µg/mL
- EC-1 (MIC) [2]: 16 µg/mL

SMILES: C[C@@](CCn1ccc(-c2ccc(-c3cocn3)cc2)cc1=O)(C(=O)NO)S(C)(=O)=O [Example 389, (2R)-N-hydroxy-2-methyl-2-(methylsulfonyl)-4-{4-[4-(1,3-oxazol-4-yl)phenyl]-2-oxopyridin-1(2H)-yl}butanamide]
- PA-7 (MIC) [1]: 1 µg/mL
- EC-1 (MIC) [2]: 1 µg/mL

SMILES: CC(C)Oc1ccc(-c2ccn(CC[C@](C)(C(=O)NO)S(C)(=O)=O)c(=O)c2)cc1 [Example 390, (2R)-N-hydroxy-4-[4-(4-isopropoxyphenyl)-2-oxopyridin-1(2H)-yl]-2-methyl-2-(methylsulfonyl)butanamide]
- PA-7 (MIC) [1]: 0.5 µg/mL
- EC-1 (MIC) [2]: 0.25 µg/mL

SMILES: C[C@@](CCn1ccc(-c2ccc(OC(F)(F)F)cc2)cc1=O)(C(=O)NO)S(C)(=O)=O [Example 391, (2R)-N-hydroxy-2-methyl-2-(methylsulfonyl)-4-{2-oxo-4-[4-(trifluoromethoxy)phenyl]pyridin-1(2H)-yl}butanamide]
- PA-7 (MIC) [1]: 0.5 µg/mL
- EC-1 (MIC) [2]: 0.25 µg/mL

SMILES: C[C@@](CCn1ccc(-c2cc(F)ccc2Cl)cc1=O)(C(=O)NO)S(C)(=O)=O [Example 392, (2R)-4-[4-(2-chloro-5-fluorophenyl)-2-oxopyridin-1(2H)-yl]-N-hydroxy-2-methyl-2-(methylsulfonyl)butanamide]
- PA-7 (MIC) [1]: 8 µg/mL
- EC-1 (MIC) [2]: 16 µg/mL

SMILES: COc1ccc(-c2ccn(CC[C@](C)(C(=O)NO)S(C)(=O)=O)c(=O)c2C)c(F)c1 [Example 393, (2R)-4-[4-(2-fluoro-4-methoxyphenyl)-3-methyl-2-oxopyridin-1(2H)-yl]-N-hydroxy-2-methyl-2-(methylsulfonyl)butanamide]
- PA-7 (MIC) [1]: 1 µg/mL
- EC-1 (MIC) [2]: 0.5 µg/mL

SMILES: Cc1c(-c2ccc(Cl)cc2F)ccn(CC[C@](C)(C(=O)NO)S(C)(=O)=O)c1=O [Example 394, (2R)-4-[4-(4-chloro-2-fluorophenyl)-3-methyl-2-oxopyridin-1(2H)-yl]-N-hydroxy-2-methyl-2-(methylsulfonyl)butanamide]
- PA-7 (MIC) [1]: 1 µg/mL
- EC-1 (MIC) [2]: 1 µg/mL

SMILES: Cc1c(-c2ccc(F)cc2)ccn(CC[C@](C)(C(=O)NO)S(C)(=O)=O)c1=O [Example 395, (2R)-4-[4-(4-fluorophenyl)-3-methyl-2-oxopyridin-1(2H)-yl]-N-hydroxy-2-methyl-2-(methylsulfonyl)butanamide]
- PA-7 (MIC) [1]: 2 µg/mL
- EC-1 (MIC) [2]: 1 µg/mL

SMILES: Cc1c(-c2ccc(Cl)cc2)ccn(CC[C@](C)(C(=O)NO)S(C)(=O)=O)c1=O [Example 396, (2R)-4-[4-(4-chlorophenyl)-3-methyl-2-oxopyridin-1(2H)-yl]-N-hydroxy-2-methyl-2-(methylsulfonyl)butanamide]
- PA-7 (MIC) [1]: 0.5 µg/mL
- EC-1 (MIC) [2]: 0.25 µg/mL

SMILES: COc1ccc(-c2ccn(CC[C@](C)(C(=O)NO)S(C)(=O)=O)c(=O)c2C)cc1 [Example 397, (2R)-N-hydroxy-4-[4-(4-methoxyphenyl)-3-methyl-2-oxopyridin-1(2H)-yl]-2-methyl-2-(methylsulfonyl)butanamide]
- PA-7 (MIC) [1]: 1 µg/mL
- EC-1 (MIC) [2]: 0.25 µg/mL
